# Calls of active or inactive are those of the source. The calls are words filed in the database; no cut-off is given here.
# Test system: not listed separately
# Test: Inverse agonist activity at HCMV US28 expressed in African green monkey COS7 cells assessed as inhibition of inositol phosphate accumulation using [3H]-myo-inositol after 90 mins by scintillation proximity assay
# Type: cell-based
# Details: Human betaherpesvirus 5, COS-7
row,Structure (SMILES),EC50 [nM]
1,Cc1nc2ccccc2n1CC1CCN(CC(=O)Nc2ccc(F)cc2F)CC1,1760

# Test system: not listed separately
# Test: Modulation of basal activity of HCMV US28 expressed in tetracyclin-induced HEK293 cells assessed as change in inositol phosphate accumulation using [3H]-myo-inositol by scintillation proximity assay
# Type: cell-based
# Details: Human betaherpesvirus 5, HEK293; read-out: EC50
row,Structure (SMILES),EC50 [nM]
1,O=C(CN1CCN(Cc2nc(-c3cccc(C(F)(F)F)c3)no2)CC1)NC1CCCCC1,19100
2,Cc1ccc(NC(=O)CN2CCC(Cn3cnc4ccccc43)CC2)cc1Cl,254
3,O=C(CN1CCN(Cc2cccc3ccccc23)CC1)Nc1ccc2c(c1)OCO2,39
4,Cc1nc2ccccc2n1CC1CCN(CC(=O)Nc2cc(C(F)(F)F)ccc2Cl)CC1,344
5,NC(=O)c1c(NC(=O)CN2CCN(Cc3ccc4c(c3)OCO4)CC2)sc2c1CCCC2,89
6,O=C(CN1CCC(C(=O)N2CCN(c3ccc(F)cc3)CC2)CC1)Nc1ccc(F)cc1,1570
7,Cc1nc2ccccc2n1CC1CCN(CC(=O)Nc2ccc(F)cc2F)CC1,985
8,COc1ccc(-c2csc(NC(=O)CN3CCN(Cc4ccc5c(c4)OCO5)CC3)n2)cc1,1800
9,Cn1c(CN2CCN(CC(=O)Nc3ccc(F)cc3F)CC2)nc2ccccc21,133
10,O=C(CN1CCN(Cc2nc3ccccc3n2Cc2ccccc2)CC1)Nc1ccccc1F,9370
11,O=C(CN1CCC(Cn2c(C(F)(F)F)nc3ccccc32)CC1)Nc1ccccc1C(F)(F)F,1140
12,O=C(CN1CCN(CN2C(=O)NC3(CCCCC3)C2=O)CC1)Nc1ccc(OC(F)(F)F)cc1,536
13,N#Cc1c(CN2CCN(CC(=O)Nc3ccccc3Cl)CC2)cn2ccccc12,67
14,O=C(CN1CCC(Cn2cnc3ccccc32)CC1)N1CCN(c2ccccc2)CC1,3890
15,Cc1nc2ccccc2n1CC1CCN(CC(=O)Nc2ccc(OC(F)(F)F)cc2)CC1,269
16,Cc1cc2ncn(CC3CCN(CC(=O)NCc4ccc(F)cc4)CC3)c2cc1C,33
17,O=C(CN1CCN(Cc2nc(-c3ccc(F)cc3)no2)CC1)Nc1ccc(F)cc1,3040
18,CC(C(=O)Nc1sccc1C(N)=O)N1CCN(Cc2nc3ccccc3s2)CC1 (configuration not stated),3840
19,Cc1cc2ncn(CC3CCN(CC(=O)Nc4ccccc4C(F)(F)F)CC3)c2cc1C,80700

# Same assay, conditions: Human betaherpesvirus 5, HEK293; read-out: pEC50 (converted)
row,Structure (SMILES),EC50 [nM]
1,O=C(CN1CCN(Cc2nc(-c3cccc(C(F)(F)F)c3)no2)CC1)NC1CCCCC1,20000
2,Cc1ccc(NC(=O)CN2CCC(Cn3cnc4ccccc43)CC2)cc1Cl,251
3,O=C(CN1CCN(Cc2cccc3ccccc23)CC1)Nc1ccc2c(c1)OCO2,39.8
4,Cc1nc2ccccc2n1CC1CCN(CC(=O)Nc2cc(C(F)(F)F)ccc2Cl)CC1,316
5,NC(=O)c1c(NC(=O)CN2CCN(Cc3ccc4c(c3)OCO4)CC2)sc2c1CCCC2,100
6,O=C(CN1CCC(C(=O)N2CCN(c3ccc(F)cc3)CC2)CC1)Nc1ccc(F)cc1,1550 to 1580
7,Cc1nc2ccccc2n1CC1CCN(CC(=O)Nc2ccc(F)cc2F)CC1,1000
8,COc1ccc(-c2csc(NC(=O)CN3CCN(Cc4ccc5c(c4)OCO5)CC3)n2)cc1,2000
9,Cn1c(CN2CCN(CC(=O)Nc3ccc(F)cc3F)CC2)nc2ccccc21,126
10,O=C(CN1CCN(Cc2nc3ccccc3n2Cc2ccccc2)CC1)Nc1ccccc1F,10000
11,O=C(CN1CCC(Cn2c(C(F)(F)F)nc3ccccc32)CC1)Nc1ccccc1C(F)(F)F,1260
12,O=C(CN1CCN(CN2C(=O)NC3(CCCCC3)C2=O)CC1)Nc1ccc(OC(F)(F)F)cc1,501
13,N#Cc1c(CN2CCN(CC(=O)Nc3ccccc3Cl)CC2)cn2ccccc12,63.1
14,O=C(CN1CCC(Cn2cnc3ccccc32)CC1)N1CCN(c2ccccc2)CC1,3980
15,Cc1nc2ccccc2n1CC1CCN(CC(=O)Nc2ccc(OC(F)(F)F)cc2)CC1,251
16,Cc1cc2ncn(CC3CCN(CC(=O)NCc4ccc(F)cc4)CC3)c2cc1C,31.6
17,O=C(CN1CCN(Cc2nc(-c3ccc(F)cc3)no2)CC1)Nc1ccc(F)cc1,3020 to 3160
18,CC(C(=O)Nc1sccc1C(N)=O)N1CCN(Cc2nc3ccccc3s2)CC1 (configuration not stated),3980
19,Cc1cc2ncn(CC3CCN(CC(=O)Nc4ccccc4C(F)(F)F)CC3)c2cc1C,79400

# Test system: HEK293
# Test: Modulation of basal activity of HCMV US28 expressed in tetracyclin-induced HEK293 cells assessed as change in inositol phosphate accumulation at 10 uM using [3H]-myo-inositol by scintillation proximity assay relative to control
# Type: cell-based
# Details: Human betaherpesvirus 5
row,Structure (SMILES),Efficacy [%]
1,O=C(CN1CCN(Cc2nc(-c3cccc(C(F)(F)F)c3)no2)CC1)NC1CCCCC1,-23
2,Cc1ccc(NC(=O)CN2CCC(Cn3cnc4ccccc43)CC2)cc1Cl,21
3,O=C(CN1CCN(Cc2cccc3ccccc23)CC1)Nc1ccc2c(c1)OCO2,-24
4,Cc1nc2ccccc2n1CC1CCN(CC(=O)Nc2cc(C(F)(F)F)ccc2Cl)CC1,-43
5,NC(=O)c1c(NC(=O)CN2CCN(Cc3ccc4c(c3)OCO4)CC2)sc2c1CCCC2,-31
6,O=C(CN1CCC(C(=O)N2CCN(c3ccc(F)cc3)CC2)CC1)Nc1ccc(F)cc1,-32
7,Cc1nc2ccccc2n1CC1CCN(CC(=O)Nc2ccc(F)cc2F)CC1,-39
8,Cc1ncc(CN2CCN(CC(=O)Nc3ccc(F)cc3)CC2)s1,-20
9,COc1ccc(-c2csc(NC(=O)CN3CCN(Cc4ccc5c(c4)OCO5)CC3)n2)cc1,-30
10,Cn1c(CN2CCN(CC(=O)Nc3ccc(F)cc3F)CC2)nc2ccccc21,-15
11,O=C(CN1CCN(Cc2nc3ccccc3n2Cc2ccccc2)CC1)Nc1ccccc1F,-20
12,O=C(CN1CCC(Cn2c(C(F)(F)F)nc3ccccc32)CC1)Nc1ccccc1C(F)(F)F,-28
13,O=C(CN1CCN(CN2C(=O)NC3(CCCCC3)C2=O)CC1)Nc1ccc(OC(F)(F)F)cc1,-12
14,N#Cc1c(CN2CCN(CC(=O)Nc3ccccc3Cl)CC2)cn2ccccc12,-15
15,O=C(CN1CCC(Cn2cnc3ccccc32)CC1)N1CCN(c2ccccc2)CC1,-27
16,Cc1nc2ccccc2n1CC1CCN(CC(=O)Nc2ccc(OC(F)(F)F)cc2)CC1,26
17,Cc1cc2ncn(CC3CCN(CC(=O)NCc4ccc(F)cc4)CC3)c2cc1C,-16
18,O=C(CN1CCN(Cc2nc(-c3ccc(F)cc3)no2)CC1)Nc1ccc(F)cc1,-54
19,CC(C(=O)Nc1sccc1C(N)=O)N1CCN(Cc2nc3ccccc3s2)CC1 (configuration not stated),-46
20,Cc1cc2ncn(CC3CCN(CC(=O)Nc4ccccc4C(F)(F)F)CC3)c2cc1C,-12

# Test system: HEK293
# Test: Displacement of [125I]-CX3CL1 from HCMV US28 expressed in HEK293 cells at 10 uM after 3 hrs by gamma counting method relative to control
# Type: cell-based
# Details: Human betaherpesvirus 5
row,Structure (SMILES),inhibition
1,Cc1nc2ccccc2n1CC1CCN(CC(=O)Nc2ccc(F)cc2F)CC1,inactive
2,Cc1nc2ccccc2n1CC1CCN(CC(=O)Nc2ccc(OC(F)(F)F)cc2)CC1,32%

# Test system: HEK293
# Test: Displacement of [125I]-CCL2 from HCMV US28 expressed in HEK293 cells at 10 uM after 3 hrs by gamma counting method relative to control
# Type: cell-based
# Details: Human betaherpesvirus 5
row,Structure (SMILES),Efficacy [%]
1,Cc1ccc(NC(=O)CN2CCC(Cn3cnc4ccccc43)CC2)cc1Cl,71
2,Cc1nc2ccccc2n1CC1CCN(CC(=O)Nc2cc(C(F)(F)F)ccc2Cl)CC1,24
3,Cc1nc2ccccc2n1CC1CCN(CC(=O)Nc2ccc(F)cc2F)CC1,10
4,Cn1c(CN2CCN(CC(=O)Nc3ccc(F)cc3F)CC2)nc2ccccc21,6
5,Cc1nc2ccccc2n1CC1CCN(CC(=O)Nc2ccc(OC(F)(F)F)cc2)CC1,78
6,Cc1cc2ncn(CC3CCN(CC(=O)NCc4ccc(F)cc4)CC3)c2cc1C,25

# Test system: HEK293
# Test: Displacement of [125I]-CCL4 from HCMV US28 expressed in HEK293 cells at 10 uM after 3 hrs by gamma counting method relative to control
# Type: cell-based
# Details: Human betaherpesvirus 5
row,Structure (SMILES),inhibition [%]
1,Cc1nc2ccccc2n1CC1CCN(CC(=O)Nc2ccc(F)cc2F)CC1,10

# Test system: not listed separately
# Test: Displacement of [125I]-CCL2 from HCMV US28 expressed in HEK293 cells after 3 hrs by gamma counting method
# Type: cell-based, Human betaherpesvirus 5
# Details: not given
Structure (SMILES),IC50 [nM],pIC50
Cc1ccc(NC(=O)CN2CCC(Cn3cnc4ccccc43)CC2)cc1Cl,1520,5.82
Cc1nc2ccccc2n1CC1CCN(CC(=O)Nc2cc(C(F)(F)F)ccc2Cl)CC1,2990,5.52
Cc1nc2ccccc2n1CC1CCN(CC(=O)Nc2ccc(OC(F)(F)F)cc2)CC1,2110,5.68
Cc1cc2ncn(CC3CCN(CC(=O)NCc4ccc(F)cc4)CC3)c2cc1C,> 10000,

# Test system: HEK293
# Test: Effect on inositol phosphate accumulation in HEK293 cells at 10 uM using [3H]-myo-inositol by scintillation proximity assay
# Type: cell-based
# Details: human, hek293, 10 µM
row,Structure (SMILES),Activity
1,O=C(CN1CCN(Cc2nc(-c3ccc(F)cc3)no2)CC1)Nc1ccc(F)cc1,Toxic

# Test system: not listed separately
# Test: Modulation of basal activity of HCMV US28 delta300 mutant expressed in tetracyclin-induced HEK293 cells assessed as change in inositol phosphate accumulation using [3H]-myo-inositol by scintillation proximity assay
# Type: cell-based
# Details: Human betaherpesvirus 5, HEK293; read-out: EC50
row,Structure (SMILES),EC50 [nM]
1,Cc1ccc(NC(=O)CN2CCC(Cn3cnc4ccccc43)CC2)cc1Cl,182
2,O=C(CN1CCN(Cc2cccc3ccccc23)CC1)Nc1ccc2c(c1)OCO2,> 10000
3,Cn1c(CN2CCN(CC(=O)Nc3ccc(F)cc3F)CC2)nc2ccccc21,9880
4,O=C(CN1CCC(Cn2cnc3ccccc32)CC1)N1CCN(c2ccccc2)CC1,4800
5,Cc1nc2ccccc2n1CC1CCN(CC(=O)Nc2ccc(OC(F)(F)F)cc2)CC1,103
6,O=C(CN1CCN(Cc2nc(-c3ccc(F)cc3)no2)CC1)Nc1ccc(F)cc1,1140
7,Cc1cc2ncn(CC3CCN(CC(=O)Nc4ccccc4C(F)(F)F)CC3)c2cc1C,19800

# Same assay, conditions: Human betaherpesvirus 5, HEK293; read-out: pEC50 (converted)
row,Structure (SMILES),EC50 [nM]
1,Cc1ccc(NC(=O)CN2CCC(Cn3cnc4ccccc43)CC2)cc1Cl,200
2,O=C(CN1CCN(Cc2cccc3ccccc23)CC1)Nc1ccc2c(c1)OCO2,< 10000
3,Cn1c(CN2CCN(CC(=O)Nc3ccc(F)cc3F)CC2)nc2ccccc21,10000
4,O=C(CN1CCC(Cn2cnc3ccccc32)CC1)N1CCN(c2ccccc2)CC1,5010
5,Cc1nc2ccccc2n1CC1CCN(CC(=O)Nc2ccc(OC(F)(F)F)cc2)CC1,100
6,O=C(CN1CCN(Cc2nc(-c3ccc(F)cc3)no2)CC1)Nc1ccc(F)cc1,1260
7,Cc1cc2ncn(CC3CCN(CC(=O)Nc4ccccc4C(F)(F)F)CC3)c2cc1C,20000

# Test system: HEK293
# Test: Modulation of basal activity of HCMV US28 delta300 mutant expressed in tetracyclin-induced HEK293 cells assessed as change in inositol phosphate accumulation at 10 uM using [3H]-myo-inositol by scintillation proximity assay relative to control
# Type: cell-based
# Details: Human betaherpesvirus 5
row,Structure (SMILES),Efficacy [%]
1,Cc1ccc(NC(=O)CN2CCC(Cn3cnc4ccccc43)CC2)cc1Cl,50
2,O=C(CN1CCN(Cc2cccc3ccccc23)CC1)Nc1ccc2c(c1)OCO2,53
3,Cn1c(CN2CCN(CC(=O)Nc3ccc(F)cc3F)CC2)nc2ccccc21,75
4,O=C(CN1CCC(Cn2cnc3ccccc32)CC1)N1CCN(c2ccccc2)CC1,77
5,Cc1nc2ccccc2n1CC1CCN(CC(=O)Nc2ccc(OC(F)(F)F)cc2)CC1,86
6,O=C(CN1CCN(Cc2nc(-c3ccc(F)cc3)no2)CC1)Nc1ccc(F)cc1,-23
7,Cc1cc2ncn(CC3CCN(CC(=O)Nc4ccccc4C(F)(F)F)CC3)c2cc1C,54
